Data set [1] can be described thus: Solubility in EtOH at room temperature. The format is physicochemical. Particulars: form (II) vs form (I).
Data set [2] can be described thus: Thermodynamic stability from DSC data (melting point, enthalpy of fusion, Burger-Ramberger rules). The format is physicochemical. Particulars: heating rate 10° C./min, 30° C. to 140° C., all considered temperatures. On the procedure:
Further, differential scanning calorimetry (DSC) data reveal the difference between the two polymorphic forms of Rotigotine (FIGS. 7 and 8). […] Therefore, the two polymorphs of Rotigotine appear to be monotropically related.
Thermal behavior investigations of Rotigotine of polymorphic form (I) (batch 1608726) and of polymorphic form (II) (batch 7769396) were performed on a Mettler Toledo DSC system and on a TA instrument (Q-1000). The analyses were carried out with a heating rate of 10° C./min in pierced aluminum crucibles in a temperature range from 30° C. to 140° C.
In sum, the two polymorphic forms of Rotigotine can be differentiated by their respective melting point and their respective enthalpy of fusion. […] Therefore, the two polymorphs of Rotigotine are most probably monotropically related.

`CCCN(CCc1cccs1)[C@H]1CCc2c(O)cccc2C1` [polymorphic form (II), (−)-5,6,7,8-tetrahydro-6-[propyl-[2-(2-thienyl)ethyl]-amino]-1-naphthalenol]: in data set [1], the “solubility in EtOH relative to polymorphic form (I)” value is given as “at least five times lower”. Moreover, the “thermodynamic stability relative to the other polymorph” value in data set [2] was “thermodynamically more stable than polymorphic form (I)”.

These data come from patent US8592477B2, “Polymorphic form of rotigotine and process for production” (UCB Pharma GmbH, priority 2007, dated 2013).
